Assay in all cases: growth of human tumour cells (NCI), 48 h
Test [1] relates to IGROV1 ovarian.
Test [2] deals with LOX IMVI melanoma.
The subject of test [3] is MALME-3M melanoma.
In test [4] the test system is NCI-H23 lung.
Test [5] deals with NCI-H522 lung.
In test [6] the test system is OVCAR-4 ovarian.
For test [7], the system named is SF-268 CNS.
For test [8], the system named is SK-MEL-28 melanoma.
Test [9] deals with SNB-75 CNS.
Test [10] deals with SR leukemia.

This is an account of results in PubChem BioAssay (NCI).

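1) Cells in 96-well plates. 2) Compound, 48 h, 5 concentrations. 3) Linear interpolation between surrounding doses. 4) Unreached endpoint = highest concentration. GI50 = concentration required for 50% inhibition of growth. TGI denotes the concentration required for complete inhibition of growth.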

As for `O=C(c1ccco1)c1c(C(F)(F)F)n([O-])c2ccccc2[n+]1=O`, the GI50 in [1] was 0.549 µM; in test [2] it was 0.548 µM; in [3], 1.68 µM; in test [4], 1.21 µM; in test [5], 0.468 µM; in test [6] it was 5.45 µM. For the same compound, the GI50 is 0.515 µM in test [7], 15.9 µM in test [8], 8.36 µM in [9] and 0.0737 µM in [10]. Besides, the TGI in [1] stood at 1.21 µM; in test [2] it was 2.1 µM; in test [3] it was 8.02 µM; in test [4], 7.26 µM; in test [5], 1.98 µM; in test [6], 15.4 µM. The TGI stood at 2.56 µM in test [7], 50 µM in [8], 25.1 µM in test [9] and 0.523 µM in test [10].

Take `Cc1cc(Cc2cc(C)cc(C(C)(C)C)c2O)c(O)c(C(C)(C)C)c1`: the GI50 was 5.24 µM in test [1]; 7.55 µM in test [2]; 5.3 µM in test [3]; 4.23 µM in test [4]; 4.16 µM in test [5]; 11.6 µM in [6]. Further, the GI50 in [7] is 5.06 µM; in test [8], 12.9 µM; in test [9], 11.9 µM; in [10], 4.46 µM. For the same compound, the TGI in test [1] is 16.5 µM; in [2] it was 20.2 µM; in [3], 20 µM; in [4] it was 16.3 µM; in test [5], 14.6 µM; in test [6], 23.9 µM. For the same compound, the TGI stood at 17.3 µM in [7], 25.6 µM in test [8], 24.3 µM in [9] and 45.9 µM in test [10].

With `C=C1C(=O)O[C@H]2[C@H]1CC/C(COC(=O)CSCC(=O)OC/C1=C/CC[C@@]3(C)O[C@H]3[C@H]3OC(=O)C(=C)[C@@H]3CC1)=C\CC[C@@]1(C)O[C@@H]21`, the GI50 in [1] was 1.47 µM; in test [2] it was 1.58 µM; in [3], 1.24 µM; in [4], 2.26 µM; in test [5], 1.08 µM; in test [6] it was 1.79 µM. Also, the GI50 in [7] was 3.28 µM; in test [8] it was 1.55 µM; in test [9], 3.13 µM; in test [10], 0.282 µM. The TGI in [1] was 4.02 µM; in [2], 3.1 µM; in test [3] it was 2.8 µM; in [4], 7.07 µM; in [5] it was 2.49 µM; in test [6], 4.6 µM. For the same compound, the TGI was found to be 13.9 µM in test [7], 3.61 µM in [8], 10.5 µM in [9] and 2.15 µM in [10].

Take `C=CCC1(O)c2cccc(NCCO)c2C(=O)c2c(NCCO)cccc21`: the GI50 in test [1], in test [2], in test [3], in test [4], in [5] and in test [6] was > 100 µM throughout. For the same compound, the GI50 in test [7] was > 100 µM; in test [8], > 100 µM; in test [9], 75.3 µM; in test [10], > 100 µM. Further, the TGI in [1], in test [2], in test [3], in test [4], in [5] and in [6] was > 100 µM in each case. The TGI in test [7], in [8], in test [9] and in test [10] was > 100 µM in each case.

For `S=C1Nc2ccc(Cl)cc2C2(c3ccccc3)N3CCN=C3NN12` (centres undefined), the GI50 in [1] was 17.4 µM; in test [2], 17.6 µM; in test [3] it was 23.5 µM; in [4], > 100 µM; in test [5], 21.7 µM; in test [6], 26.1 µM. Further, the GI50 was 28.6 µM in [7], 30.9 µM in test [8], 17.6 µM in test [9] and 23.7 µM in test [10]. The TGI in [1] is 40.9 µM; in test [2] it was 36.2 µM; in [3] it was 78.4 µM; in [4], > 100 µM; in [5], 48.1 µM; in [6] it was > 100 µM. In addition, the TGI in test [7] is > 100 µM; in [8], > 100 µM; in test [9], > 100 µM; in test [10], 88.8 µM.

Turning to `CC(C)NC(=O)OCc1c(COC(=O)NC(C)C)c(-c2ccc(Cl)cc2)n2c1CCC2`, the GI50 in test [1] was 1.59 µM; in test [2], 2.4 µM; in test [3], 2.36 µM; in test [4], 2.15 µM; in [5], 1.77 µM; in [6], 2.7 µM. For the same compound, the GI50 in [7] was 2.25 µM; in test [8], 7.52 µM; in test [9], 1.7 µM; in test [10], 0.218 µM. The TGI in test [1] came to 10.2 µM; in [2], 13.6 µM; in [3] it was 9.69 µM; in test [4], 12.5 µM; in [5] it was 5.66 µM; in [6] it was 14.3 µM. For the same compound, the figures for the TGI in [7], in test [8] and in test [9] were 13.5 µM, 22.2 µM and 8.44 µM, respectively.
